According to patent publication US20250002464A1, “NOVEL COMPOUND AND PHARMACEUTICAL COMPOSITION COMPRISING SAME” (SAPIENSBIO INC., priority 2021, published 2025):

Legend:
MCR5 cell line = assay: intracellular F-actin polymerization, TGF-β1-treated cells, confocal microscope; format: cell-based; details: 10 μM along with TGF-β1 (10 ng/mL), 48 hours (FIGS. 2A and 2B)
From the text: F-actin polymerization activates transcription factors involved in the activation of myofibroblasts and the initiation of fibrosis. Accordingly, when F-actin polymerization decreases, the expression of fibrosis-causing genes by the transcription factors may be inhibited, and the activation and fibrosis of muscle fiber cells may be reduced. Therefore, in this example, it was confirmed whether the compounds according to the present invention are effective in inhibiting F-actin polymerization.
An MCR5 cell line was dispensed at 1×10^3 cells/well in a 96-well black micro plate and cultured in Medium 1 (10% FBS-containing MEM) in 5% CO2 at 37° C. for 24 hours. Subsequently, the above medium was exchanged with Medium 2 (0.5% FBS-containing MEM), a compound of the present invention was treated at 10 μM along with TGF-β1 (10 ng/mL), and the cells were incubated for 48 hours. After removing the entire batch, the cells were treated with each of CellMask Orange Actin Tracking Stain (Invitrogen) and NucBlue Live ReadyProbes (Invitrogen) to performing F-actin and cell nucleus staining in accordance with the manufacturer's recommended conditions. Cells treated with the staining reagents were incubated for 30 minutes at 5% CO2 and 37° C. while blocking light. After completing the incubation, the staining reagents were removed, fresh Medium 1 was added to the cells at 100 μL/well, and then the cells were incubated for 5 minutes, followed by removal of the medium. The above process was repeated three times. To observe the stained F-actin and cell nucleus, PBS was added to the plate at 100 μL/well, and then the cells were photographed using a confocal microscope (Leica) and analyzed using Image J software.

Arp2/3 complex = assay: in vitro actin polymerization test (pyrene-labeled actin); format: biochemical; details: 10 μM, VCA domain protein, spherical actin monomers, 1 hour, compared to control (FIG. 1)
Method: Although actin polymerization, which is a process of forming actin filaments from actin monomers, is involved in controlling cell movement, tissue fibrosis may be caused by the promotion of excessive α-SMA expression and induction of myofibroblast activation. Accordingly, an in vitro actin polymerization test was performed to confirm the actin polymerization controlling function of the compounds according to the present invention.
Specifically, a pyrene-labeled spherical actin stock was diluted with general actin buffer (5 mM Tris-HCl pH 8.0, 0.2 mM CaCl2)) and incubated at 4° C. for 1 hour, thereby producing spherical actin monomers. Afterward, 80% of a supernatant was recovered by centrifugation at 20,000×g and 4° C. for 3 hours, and 0.1 mg/mL spherical actin monomers were prepared. The Arp2/3 complex, the VCA domain protein, and Compound 12, 38, or 59 (10 μM each) according to the present invention were added to the spherical actin monomers and an actin polymerization buffer and reacted at room temperature for 1 hour. The increased fluorescence intensity during the reaction from the spherical actin monomer to a fibrous actin polymer was measured using a microplate reader at an excitation wavelength of 360 nm and an emission wavelength of 407 nm. The degree of actin polymerization was shown relative to the maximum polymerization rate (arbitrary units).

α-SMA [1] = assay: α-SMA expression inhibitory ability in MRC5 cell line (Western blotting); format: cell-based; details: TGF-β1 (10 ng/mL), 72 hours, relative to TGF-β1 only
Method in brief: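 MRC5 cells given compound at 10 μM, then TGF-β1 (10 ng/mL) 2 h later; after 72 h, lysates probed for α-SMA by Western blot. Inhibition is α-SMA level relative to TGF-β1 alone, binned A ≥70%, B 50–<70%, C <50%.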

fibronectin = fibronectin protein level by Western blotting in TGF-β1-treated fibroblasts; format: cell-based; details: MRC5 cells, 5, 10, or 20 μM, TGF-β1 (10 ng/mL), 70 hours
From the text: (§1) α-SMA protein is a marker of activated myofibroblasts, which are the main effector cells of fibrosis, myofibroblasts with increased α-SMA expression are known to produce a fibrotic protein such as collagen type 1 and cause fibrosis. Therefore, in this example, it was confirmed whether the compound according to the present invention is effective in inhibiting fibrosis by reducing the expression of α-SMA and other pro-fibrotic factors (COL1A1, COL4A1, fibronectin, and p-SMAD2).
(§2) Specifically, lung tissue-derived fibroblasts, MRC5 cells, were treated with Compound 59 according to the present invention (5, 10, or 20 μM), nintedanib (1 μM), or DMSO, and then 2 hours later, treated with TGF-β1 (10 ng/mL). After 70 hours, the cells were lysed in RIPA buffer (50 mM Tris-HCl, 150 mM NaCl, 1% NP-40, 0.5% sodium deoxycholate, 0.1% SDS, protease inhibitor & phosphatase inhibitor cocktail, pH 8.0), which had been cooled to 4° C. The cell lysate was centrifuged at 4° C. at a speed of 15,000×g for 30 minutes, and then the supernatant was collected. After matching the total amount of proteins in the supernatant of each sample (15 to 30 μg), the proteins were separated according to molecular weight using SDS polyacrylamide gel electrophoresis (SDS-PAGE). […]

COL4A1 = COL4A1 protein level by Western blotting in TGF-β1-treated fibroblasts; format: cell-based; details: MRC5 cells, 5, 10, or 20 μM, TGF-β1 (10 ng/mL), 70 hours
From the text: as §1, §2

α-SMA [2] = assay: α-SMA protein level by Western blotting in TGF-β1-treated fibroblasts; format: cell-based; details: MRC5 cells, 5, 10, or 20 μM, TGF-β1 (10 ng/mL), 70 hours
From the text: as §1, §2

p-SMAD2 = assay: phosphorylation of SMAD2 by Western blotting in TGF-β1-treated fibroblasts; format: cell-based; details: TGF-β1 (10 ng/mL), 70 hours
From the text: as §1, §2

COL1A1 = COL1A1 protein level by Western blotting in TGF-β1-treated fibroblasts; format: cell-based; details: MRC5 cells, 5, 10, or 20 μM, TGF-β1 (10 ng/mL), 70 hours
From the text: as §1, §2

[3] = clinical use in IPF patients; cited from earlier work

With `CC(C(=O)N1CCN(c2ccccc2)c2cc(F)ccc21)N1CCCCC1` (centres unmarked) [Compound 12, 1-(6-fluoro-4-phenyl-3,4-dihydroquinoxaline-1(2H)-yl)-2-(piperidin-1-yl)propan-1-one] the “intracellular F-actin polymerization” value (MCR5 cell line) was “significantly reduced”, the “actin polymerization activity (maximum polymerization rate)” value (shortened to “actin polymerization activity”) (Arp2/3 complex) was “decreased compared to the control” and the inhibition at 10 µM (α-SMA [1]) was at least 70%.

For `O=C(CCN1CCCCC1)N1CCN(c2ccc(F)cc2)c2cc(F)ccc21` [Compound 38, 1-(6-fluoro-4-(4-fluorophenyl)-3,4-dihydroquinoxaline-1(2H)-yl)-3-(piperidin-1-yl)propan-1-one], the “intracellular F-actin polymerization” value (MCR5 cell line) was “significantly reduced”, the “actin polymerization activity” value (Arp2/3 complex) was “decreased compared to the control” and the inhibition at 10 µM (α-SMA [1]) was at least 70%.

With `CC(C(=O)N1CCN(c2ccccc2)c2ccccc21)N1CCCC[C@H]1C` (stereo partly drawn) [Compound 59, 2-((R)-2-methylpiperidin-1-yl)-1-(4-phenyl-3,4-dihydroquinoxaline-1(2H)-yl)propan-1-one phosphate] the “intracellular F-actin polymerization” value (MCR5 cell line) was “significantly reduced”, the fibronectin protein level (fibronectin) was “greatly decreased” and the COL4A1 protein level (COL4A1) was “greatly decreased”. For the same compound, the “actin polymerization activity” value (Arp2/3 complex) was “decreased compared to the control”, the inhibition at 10 µM (α-SMA [1]) was under 50% and the α-SMA protein level (α-SMA [2]) was “significantly decreased”. The “phosphorylation of SMAD2 protein” value (p-SMAD2; MRC5 cells, 5, 10, or 20 μM) was “decreased in a concentration-dependent manner”, the “phosphorylation of SMAD2 protein compared to nintedanib” value (p-SMAD2; MRC5 cells, compared to nintedanib (1 μM)) was “reduced to a greater extent” and the COL1A1 protein level (COL1A1) was “greatly decreased”.

`CC(C)N1CCN(C(=O)CCN2CCN(C)CC2)c2ccccc21` [Compound 179, 1-(4-isopropyl-3,4-dihydroquinoxaline-1(2H)-yl)-3-(4-methylpiperazin-1-yl)propan-1-one] gave an inhibition at 10 µM (α-SMA [1]) of under 50%.

For `CC(C(=O)N1CCN(C(C)C)c2ccccc21)N1CCCCC1` (centres unmarked) [Compound 181, 1-(4-isopropyl-3,4-dihydroquinoxaline-1(2H)-yl)-2-(piperidin-1-yl)propan-1-one], the inhibition at 10 µM (α-SMA [1]) was under 50%.

Work on `CC(C(=O)N1CCN(C(C)C)c2ccccc21)N1CCN(C)CC1` (centres unmarked) [Compound 182, 1-(4-isopropyl-3,4-dihydroquinoxaline-1(2H)-yl)-2-(4-methylpiperazin-1-yl)propan-1-one] yielded an inhibition at 10 µM (α-SMA [1]) of under 50%.

Compound `CC(C)N1CCN(C(=O)CN2CCCCC2)c2ccccc21` [Compound 184, 1-(4-isopropyl-3,4-dihydroquinoxaline-1(2H)-yl)-2-(piperidin-1-yl)ethan-1-one] has an inhibition at 10 µM (α-SMA [1]) of under 50%.

Compound `O=C(CCN1CCCC1)N1CCN(C2CCCCC2)c2ccccc21` [Compound 186, 1-(4-cyclohexyl-3,4-dihydroquinoxaline-1(2H)-yl)-3-(pyrrolidin-1-yl)propan-1-one] has an inhibition at 10 µM (α-SMA [1]) of 50 to 70%.

For `O=C(CCN1CCCCC1)N1CCN(C2CCCCC2)c2ccccc21` [Compound 187, 1-(4-cyclohexyl-3,4-dihydroquinoxaline-1(2H)-yl)-3-(piperidin-1-yl)propan-1-one], the inhibition at 10 µM (α-SMA [1]) was at least 70%.

`CN1CCN(CCC(=O)N2CCN(C3CCCCC3)c3ccccc32)CC1` [Compound 188, 1-(4-cyclohexyl-3,4-dihydroquinoxaline-1(2H)-yl)-3-(4-methylpiperazin-1-yl)propan-1-one] gave an inhibition at 10 µM (α-SMA [1]) of 50 to 70%.

With `CC(C(=O)N1CCN(C2CCCCC2)c2ccccc21)N1CCCCC1` (centres unmarked) [Compound 191, 1-(4-cyclohexyl-3,4-dihydroquinoxaline-1(2H)-yl)-2-(piperidin-1-yl)propan-1-one] the inhibition at 10 µM (α-SMA [1]) was 50 to 70%.

In the case of `CC(C(=O)N1CCN(C2CCCCC2)c2ccccc21)N1CCN(C)CC1` (centres unmarked) [Compound 192, 1-(4-cyclohexyl-3,4-dihydroquinoxaline-1(2H)-yl)-2-(4-methylpiperazin-1-yl)propan-1-one], the inhibition at 10 µM (α-SMA [1]) is reported as under 50%.

`O=C(CN1CCCC1)N1CCN(C2CCCCC2)c2ccccc21` [Compound 193, 1-(4-cyclohexyl-3,4-dihydroquinoxaline-1(2H)-yl)-2-(pyrrolidin-1-yl)ethan-1-one] gave an inhibition at 10 µM (α-SMA [1]) of under 50%.

With `O=C(CN1CCCCC1)N1CCN(C2CCCCC2)c2ccccc21` [Compound 194, 1-(4-cyclohexyl-3,4-dihydroquinoxaline-1(2H)-yl)-2-(piperidin-1-yl)ethan-1-one] the inhibition at 10 µM (α-SMA [1]) was under 50%.

For `O=C(CCN1CCCC1)N1CCN(C(=O)c2ccccc2)c2ccccc21` [Compound 196, 1-(4-benzoyl-3,4-dihydroquinoxaline-1(2H)-yl)-3-(pyrrolidin-1-yl)propan-1-one], the inhibition at 10 µM (α-SMA [1]) was under 50%.

`CN1CCN(CCC(=O)N2CCN(C(=O)c3ccccc3)c3ccccc32)CC1` [Compound 198, 1-(4-benzoyl-3,4-dihydroquinoxaline-1(2H)-yl)-3-(4-methylpiperazin-1-yl)propan-1-one] gave an inhibition at 10 µM (α-SMA [1]) of under 50%.

For `CC(C(=O)N1CCN(C(=O)c2ccccc2)c2ccccc21)N1CCCC1` (centres unmarked) [Compound 199, 1-(4-benzoyl-3,4-dihydroquinoxaline-1(2H)-yl)-2-(pyrrolidin-1-yl)propan-1-one], the inhibition at 10 µM (α-SMA [1]) was under 50%.

`CC(C(=O)N1CCN(C(=O)c2ccccc2)c2ccccc21)N1CCCCC1` (centres unmarked) [Compound 200, 1-(4-benzoyl-3,4-dihydroquinoxaline-1(2H)-yl)-2-(piperidin-1-yl)propan-1-one] showed an inhibition at 10 µM (α-SMA [1]) of under 50%.

Compound `CC(C(=O)N1CCN(C(=O)c2ccccc2)c2ccccc21)N1CCN(C)CC1` (centres unmarked) [Compound 201, 1-(4-benzoyl-3,4-dihydroquinoxaline-1(2H)-yl)-2-(4-methylpiperazin-1-yl)propan-1-one] has an inhibition at 10 µM (α-SMA [1]) of under 50%.

`O=C(CN1CCCC1)N1CCN(C(=O)c2ccccc2)c2ccccc21` [Compound 202, 1-(4-benzoyl-3,4-dihydroquinoxaline-1(2H)-yl)-2-(pyrrolidin-1-yl)ethan-1-one] gave an inhibition at 10 µM (α-SMA [1]) of under 50%.

In the case of `O=C(CN1CCCCC1)N1CCN(C(=O)c2ccccc2)c2ccccc21` [Compound 203, 1-(4-benzoyl-3,4-dihydroquinoxaline-1(2H)-yl)-2-(piperidin-1-yl)ethan-1-one], the inhibition at 10 µM (α-SMA [1]) is reported as under 50%.

With `CN1CCN(CC(=O)N2CCN(C(=O)c3ccccc3)c3ccccc32)CC1` [Compound 204, 1-(4-benzoyl-3,4-dihydroquinoxaline-1(2H)-yl)-2-(4-methylpiperazin-1-yl)ethan-1-one] the inhibition at 10 µM (α-SMA [1]) was under 50%.

For `Cc1ccc(=O)n(-c2ccccc2)c1` [Pirfenidone], the “improvement in lung function (treatment effect) in IPF” value [3] is listed as “about 10%”.
